Test results: publication PMC4472245, “Alternative divalent cations (Zn^2+, Co^2+, and Mn^2+) are not mutagenic at conditions optimal for HIV-1 reverse transcriptase activity” (BMC Biochemistry, 2015)
Where two headings read alike, the source gives them in different places.

Experiments:
[1] = molecular target: T1, HIV RT (HIV-1 reverse transcriptase, p66/p51) (HIV-1 M:B_HXB2R, UniProt P04585); conditions: read-out: ^d K m / μM, 0.4 mM free Zn2+ instead of Mg2+, DNA primer-template, pH 7.7, 37 °C
T1 construct: gene gag-pol
Excerpt: steady-state running-start incorporation, gel on HIV RT (HIV-1 reverse transcriptase, p66/p51)

[2] = molecular target: T1, HIV RT (HIV-1 reverse transcriptase, p66/p51); conditions: read-out: ^d K m / μM; 0.4 mM free Zn2+ instead of Mg2+; DNA primer-template with matched C.G 3' end; next correct nucleotide; pH 7.7, 37 °C, 80 mM KCl

Question: Which Km ([1]; misinsertion opposite template C (C.A mismatch)) does the source give for `Nc1ncnc2c1ncn2[C@H]1C[C@H](O)[C@@H](COP(=O)(O)OP(=O)(O)OP(=O)(O)O)O1` [dATP] here?
Answer: 518 ± 43 µM

Question: How did the Km [2] turn out when `Nc1ccn([C@H]2C[C@H](O)[C@@H](COP(=O)(O)OP(=O)(O)OP(=O)(O)O)O2)c(=O)n1` [dCTP] was run?
Answer: 0.04 ± 0.01 µM

Question: With `Nc1nc2c(ncn2[C@H]2C[C@H](O)[C@@H](COP(=O)(O)OP(=O)(O)OP(=O)(O)O)O2)c(=O)[nH]1` [dGTP] as the compound, how does the Km ([1]; correct insertion opposite template C (C.G), 55 μM dATP) read?
Answer: 0.19 ± 0.09 µM

Question: For `Cc1cn([C@H]2C[C@H](O)[C@@H](COP(=O)(O)OP(=O)(O)OP(=O)(O)O)O2)c(=O)[nH]c1=O` [dTTP], which Km ([1]; misinsertion opposite template C (C.T mismatch), 55 μM dATP) is on record?
Answer: 244 ± 102 µM
